Earlier results in patent US5776505A (Bayer Aktiengesellschaft, priority 1995, dated 1998).

Conditions: cross-over study; with magnesium hydroxide

For `CC(C)Cc1ccc(C(C)C(=O)O)cc1` (stereo not shown) [ibuprofen], the “plasma concentration as a result of addition of magnesium hydroxide” value is listed as “higher plasma concentration”.
